According to the NIST ThermoML archive (doi:10.1021/je7003929):

Test: xn = mol fraction of the nth substance listed
Conditions: Liquid, Vibrating tube method

c1ccc2sccc2c1 [benzo[b]thiophene] + CCCCCC
Conditions | mass density [kg/m3]
332.9 K, 1028 kPa, x2 = 0.4495 | 892.5
332.9 K, 2010 kPa, x2 = 0.4495 | 893.2
332.9 K, 3021 kPa, x2 = 0.4495 | 894.1
332.9 K, 4018 kPa, x2 = 0.4495 | 895.3
332.9 K, 5018 kPa, x2 = 0.4495 | 896.2
332.9 K, 6008 kPa, x2 = 0.4495 | 897
332.9 K, 7019 kPa, x2 = 0.4495 | 897.9
332.9 K, 8016 kPa, x2 = 0.4495 | 898.8
332.9 K, 9023 kPa, x2 = 0.4495 | 899.8
332.9 K, 10018 kPa, x2 = 0.4495 | 900.7
332.9 K, 11007 kPa, x2 = 0.4495 | 901.6
332.9 K, 12010 kPa, x2 = 0.4495 | 902.4
332.9 K, 13019 kPa, x2 = 0.4495 | 903.3
332.9 K, 14015 kPa, x2 = 0.4495 | 904.2
332.9 K, 15019 kPa, x2 = 0.4495 | 905
332.9 K, 16002 kPa, x2 = 0.4495 | 905.9
332.9 K, 17014 kPa, x2 = 0.4495 | 906.7
332.9 K, 18017 kPa, x2 = 0.4495 | 907.5
332.9 K, 19023 kPa, x2 = 0.4495 | 908.3
332.9 K, 20028 kPa, x2 = 0.4495 | 909.1
342.55 K, 1028 kPa, x2 = 0.2588 | 982.2
342.55 K, 2013 kPa, x2 = 0.2588 | 983.1
342.55 K, 3013 kPa, x2 = 0.2588 | 983.8
342.55 K, 4017 kPa, x2 = 0.2588 | 984.7
342.55 K, 5024 kPa, x2 = 0.2588 | 985.5
342.55 K, 6012 kPa, x2 = 0.2588 | 986.3
342.55 K, 7004 kPa, x2 = 0.2588 | 987.1
342.55 K, 8017 kPa, x2 = 0.2588 | 987.9
342.55 K, 9012 kPa, x2 = 0.2588 | 988.7
342.55 K, 10016 kPa, x2 = 0.2588 | 989.5
342.55 K, 11015 kPa, x2 = 0.2588 | 990.4
342.55 K, 12022 kPa, x2 = 0.2588 | 991.2
342.55 K, 13030 kPa, x2 = 0.2588 | 992
342.55 K, 14011 kPa, x2 = 0.2588 | 992.8
342.55 K, 15020 kPa, x2 = 0.2588 | 993.6
342.55 K, 16020 kPa, x2 = 0.2588 | 994.3
342.55 K, 17017 kPa, x2 = 0.2588 | 995.1
342.55 K, 18008 kPa, x2 = 0.2588 | 995.8
342.55 K, 19011 kPa, x2 = 0.2588 | 996.6
342.55 K, 20013 kPa, x2 = 0.2588 | 997.4
342.63 K, 1018 kPa, x2 = 0.0629 | 1085.6
342.63 K, 2039 kPa, x2 = 0.0629 | 1086.3
342.63 K, 3009 kPa, x2 = 0.0629 | 1087
342.63 K, 4022 kPa, x2 = 0.0629 | 1087.8
342.63 K, 5025 kPa, x2 = 0.0629 | 1088.5
342.63 K, 5925 kPa, x2 = 0.0629 | 1089.1
342.63 K, 7031 kPa, x2 = 0.0629 | 1089.9
342.63 K, 8009 kPa, x2 = 0.0629 | 1090.6
342.63 K, 9007 kPa, x2 = 0.0629 | 1091.3
342.63 K, 10024 kPa, x2 = 0.0629 | 1092
342.63 K, 11013 kPa, x2 = 0.0629 | 1092.7
342.63 K, 12012 kPa, x2 = 0.0629 | 1093.4
342.63 K, 13000 kPa, x2 = 0.0629 | 1094.1
342.63 K, 14019 kPa, x2 = 0.0629 | 1094.8
342.63 K, 15027 kPa, x2 = 0.0629 | 1095.4
342.63 K, 16019 kPa, x2 = 0.0629 | 1096.1
342.63 K, 17009 kPa, x2 = 0.0629 | 1096.8
342.63 K, 18015 kPa, x2 = 0.0629 | 1097.5
342.63 K, 19019 kPa, x2 = 0.0629 | 1098.2
342.63 K, 20018 kPa, x2 = 0.0629 | 1098.8
342.71 K, 1025 kPa, x2 = 0.9432 | 640.4
342.71 K, 2014 kPa, x2 = 0.9432 | 641.8
342.71 K, 3011 kPa, x2 = 0.9432 | 643.3
342.71 K, 4027 kPa, x2 = 0.9432 | 644.8
342.71 K, 5014 kPa, x2 = 0.9432 | 646.2
342.71 K, 6027 kPa, x2 = 0.9432 | 647.6
342.71 K, 7019 kPa, x2 = 0.9432 | 649
342.71 K, 8015 kPa, x2 = 0.9432 | 650.3
342.71 K, 9010 kPa, x2 = 0.9432 | 651.6
342.71 K, 10003 kPa, x2 = 0.9432 | 652.9
342.71 K, 11017 kPa, x2 = 0.9432 | 654.2
342.71 K, 12006 kPa, x2 = 0.9432 | 655.4
342.71 K, 13024 kPa, x2 = 0.9432 | 656.7
342.71 K, 14021 kPa, x2 = 0.9432 | 657.8
342.71 K, 15006 kPa, x2 = 0.9432 | 659
342.71 K, 16015 kPa, x2 = 0.9432 | 660.2
342.71 K, 17016 kPa, x2 = 0.9432 | 661.3
342.71 K, 18000 kPa, x2 = 0.9432 | 662.4
342.71 K, 19034 kPa, x2 = 0.9432 | 663.6
342.71 K, 20012 kPa, x2 = 0.9432 | 664.6
342.72 K, 1034 kPa, x2 = 0.7491 | 734.5
342.72 K, 2000 kPa, x2 = 0.7491 | 735.8
342.72 K, 3023 kPa, x2 = 0.7491 | 737
342.72 K, 4016 kPa, x2 = 0.7491 | 738.2
342.72 K, 5014 kPa, x2 = 0.7491 | 739.5
342.72 K, 6014 kPa, x2 = 0.7491 | 740.7
342.72 K, 7019 kPa, x2 = 0.7491 | 741.8
342.72 K, 8012 kPa, x2 = 0.7491 | 743
342.72 K, 9010 kPa, x2 = 0.7491 | 744.1
342.72 K, 10013 kPa, x2 = 0.7491 | 745.3
342.72 K, 11016 kPa, x2 = 0.7491 | 746.4
342.72 K, 12016 kPa, x2 = 0.7491 | 747.5
342.72 K, 13011 kPa, x2 = 0.7491 | 748.6
342.72 K, 14001 kPa, x2 = 0.7491 | 749.6
342.72 K, 15003 kPa, x2 = 0.7491 | 750.7
342.72 K, 16025 kPa, x2 = 0.7491 | 751.7
342.72 K, 17012 kPa, x2 = 0.7491 | 752.8
342.72 K, 18018 kPa, x2 = 0.7491 | 753.8
342.72 K, 19008 kPa, x2 = 0.7491 | 754.7
342.72 K, 20017 kPa, x2 = 0.7491 | 755.8
342.79 K, 1022 kPa, x2 = 0.4495 | 883.3
342.79 K, 2032 kPa, x2 = 0.4495 | 884.3
342.79 K, 3024 kPa, x2 = 0.4495 | 885.3
342.79 K, 4029 kPa, x2 = 0.4495 | 886.4
342.79 K, 5019 kPa, x2 = 0.4495 | 887.3
342.79 K, 6019 kPa, x2 = 0.4495 | 888.3
342.79 K, 7035 kPa, x2 = 0.4495 | 889.3
342.79 K, 8022 kPa, x2 = 0.4495 | 890.2
342.79 K, 9016 kPa, x2 = 0.4495 | 891.1
342.79 K, 10010 kPa, x2 = 0.4495 | 892
342.79 K, 11010 kPa, x2 = 0.4495 | 893
342.79 K, 12024 kPa, x2 = 0.4495 | 893.9
342.79 K, 13001 kPa, x2 = 0.4495 | 894.8
342.79 K, 14017 kPa, x2 = 0.4495 | 895.7
342.79 K, 15021 kPa, x2 = 0.4495 | 896.6
342.79 K, 16020 kPa, x2 = 0.4495 | 897.4
342.79 K, 17009 kPa, x2 = 0.4495 | 898.3
342.79 K, 18009 kPa, x2 = 0.4495 | 899.2
342.79 K, 19011 kPa, x2 = 0.4495 | 900
342.79 K, 20011 kPa, x2 = 0.4495 | 900.9
352.33 K, 1030 kPa, x2 = 0.2588 | 973.2
352.33 K, 2012 kPa, x2 = 0.2588 | 973.9
352.33 K, 3021 kPa, x2 = 0.2588 | 974.8
352.33 K, 4018 kPa, x2 = 0.2588 | 975.8
352.33 K, 5020 kPa, x2 = 0.2588 | 976.6
352.33 K, 6024 kPa, x2 = 0.2588 | 977.6
352.33 K, 7016 kPa, x2 = 0.2588 | 978.5
352.33 K, 8000 kPa, x2 = 0.2588 | 979.3
352.33 K, 9020 kPa, x2 = 0.2588 | 980.2
352.33 K, 10010 kPa, x2 = 0.2588 | 981
352.33 K, 11018 kPa, x2 = 0.2588 | 981.9
352.33 K, 12012 kPa, x2 = 0.2588 | 982.7
352.33 K, 13013 kPa, x2 = 0.2588 | 983.5
352.33 K, 14007 kPa, x2 = 0.2588 | 984.3
352.33 K, 15016 kPa, x2 = 0.2588 | 985.2
352.33 K, 16012 kPa, x2 = 0.2588 | 986
352.33 K, 17013 kPa, x2 = 0.2588 | 986.8
352.33 K, 18003 kPa, x2 = 0.2588 | 987.6
352.33 K, 19011 kPa, x2 = 0.2588 | 988.4
352.33 K, 20014 kPa, x2 = 0.2588 | 989.1
